Measured values published in patent publication US5444043A, “Cyclic heptapeptide anti-inflammatory agent” (The Regents of the University of California, priority 1994, dated 1995).

Tests used:
Type in all cases: in vivo
[1] = tested on: phorbol-induced inflammation (edema) of mouse ears; assay: Inhibition of phorbol (PMA)-induced mouse ear edema, standard protocol (topical); conditions: for Inhibition of Mouse Ear Edema: 3 h 20 min, relative to PMA control
Experimental: (§1) Cyclomarin-A was tested by measuring inhibition of phorbol-induced inflammation (edema) of mouse ears. […] The compound is topically applied in acetone to the inside pinnae of the ears of mice in a solution containing the edema-causing irritant, i.e. phorbol 12-myristate 13-acetate (PMA). PMA alone (2 microgram per ear) or in combination with varying amounts of cyclomarin-A was applied to the left ears of (5 mice per treatment group). Acetone was applied to all right ears. After a 3-hour and 20-minute incubation at 23° C., the mice were sacrificed, the ears removed and bores taken and weighed. Edema was measured by subtracting the weight of the right ear (acetone control) from the weight of the left ear (treated). The results were recorded as a percent decrease (inhibition) or percent increase (potentiation) in edema relative to the PMA control group edema.

[2] = tested on: phorbol-induced inflammation (edema) of mouse ears; assay: Inhibition of mouse ear edema, time of addition study; conditions: 50 ug/ear
Experimental: as §1, with “The compound is topically applied in acetone to the inside pinnae of the ears of mice in a solution containing the edema-causing irritant, i.e. phorbol 12-myristate 13-acetate (PMA).” left out

[3] = tested on: phorbol-induced inflammation (edema) of mouse ears; assay: Inhibition of mouse ear edema, systemic study (IP); conditions: 1 hour prior

## cyclomarin-A
[1]; 5 ug/ear topical with PMA 2 microgram per ear
  Inhibition of Mouse Ear Edema: 3.0%
[1]; 10 ug/ear topical with PMA 2 microgram per ear
  Inhibition of Mouse Ear Edema: 39.0%
[1]; 25 ug/ear topical with PMA 2 microgram per ear
  Inhibition of Mouse Ear Edema: 57.0%
[1]; 50 ug/ear topical with PMA 2 microgram per ear
  Inhibition of Mouse Ear Edema: 88.0%
[1]; 100 ug/ear topical with PMA 2 microgram per ear
  Inhibition of Mouse Ear Edema: 96.2%
[1]; topical, statement in words
  topical anti-inflammatory activity: exhibit topical anti-inflammatory activity
[2]; time of addition 0 mins
  Inhibition of Mouse Ear Edema: 82.8%
[2]; time of addition +30 mins
  Inhibition of Mouse Ear Edema: 50.9%
[2]; time of addition +60 mins
  Inhibition of Mouse Ear Edema: 12.0%
[2]; time of addition -30 mins
  Inhibition of Mouse Ear Edema: 79.4%
[2]; time of addition -60 mins
  Inhibition of Mouse Ear Edema: 51.8%
[3]; 25 mg/kg IP
  Inhibition of Mouse Ear Edema: 28.0%
[3]; 50 mg/kg IP
  Inhibition of Mouse Ear Edema: 55.0%
[3]; 100 mg/kg IP
  Inhibition of Mouse Ear Edema: 48.0%
